Measured values: patent publication US8143259B2, “Cold menthol receptor antagonists” (Janssen Pharmaceutica, NV, priority 2008, dated 2012)
pIC50: −log10 of the molar value. Several values for one entry are separate records, joined by “and”; a condition that tells them apart may be missing. Equal entries are not always repeated.

Target: T1, canine TRPM8 (Canis lupus familiaris, UniProt Q1A7N1)
T1 construct: expressed in transfected cells
Experiment: In Vitro Canine TRPM8 Functional Assay (Ca2+ fluorescence, icilin activation)
Assay type: cell-based
Conditions: for inhibition at 0.5 µM: HEK293, 0.5 μM compound; for pIC50: HEK293 cells stably expressing canine TRPM8, icilin activation, Ca2+ fluorescence; for inhibition at 0.2 µM: HEK293, 0.2 μM compound; for % Inh @ 0.5 μM: 0.5 μM compound; for % Inh @ 0.2 μM: 0.2 μM compound; for inhibition at 1 µM: HEK293, 1 μM compound
Experimental: The functional activity of compounds of the formula (I) was determined by measuring changes in intracellular calcium concentration using a Ca^2+-sensitive fluorescent dye. The changes in fluorescent signal were monitored by a fluorescence plate reader, either a FLIPR™ (Molecular Devices) or FDSS (Hamamatsu). Increases in intracellular Ca^2+ concentration were readily detected upon activation with icilin.
HEK293 cells stably expressing canine TRPM8 were routinely grown as monolayers in Dulbecco's minimum essential medium supplemented with 10% FBS, 2 mM L-glutamine, 100 units/mL penicillin, 100 ug/mL streptomycin and 400 μg/mL G418. Cells were maintained in 5% CO2 at 37° C. At 24 hrs prior to assay, cells were seeded in black wall, clear-base poly-D-lysine coated 384-well plates (BD Biosciences, NJ, USA) at a density of 5,000 cells per well in culture medium and grown overnight in 5% CO2 at 37° C. On assay day, growth media was removed and cells were loaded with Calcium 3 Dye (Molecular Devices) for 35 min at 37° C., under 5% CO2 and then for 25 min at room temperature and atmosphere. Subsequently, cells were tested for agonist-induced increases in intracellular Ca^2+ levels using FLIPR™ or FDSS. Cells were challenged with compounds of the formula (I) (at varying concentrations) and intracellular Ca^2+ was measured for 5 min prior to the addition of icilin to all wells to achieve a final concentration that produces approximately an 80% maximal response.
Maximal fluorescence intensity (FI) achieved upon addition of icilin was exported from the FLIPR or FDSS software and further analyzed using GraphPad Prism 3.02 (Graph Pad Software Inc., CA, U.S.A.). Basal FI was subtracted prior to normalizing data to percent of maximal response. Curves were generated using the average of quadruplicate wells for each data point, were analyzed using nonlinear regression of either sigmoidal dose response or sigmoidal dose response (variable slope).

[1] = canine TRPM8 HEK293, icilin, 0.2 µM

T1 sequence (Q1A7N1 1-1104): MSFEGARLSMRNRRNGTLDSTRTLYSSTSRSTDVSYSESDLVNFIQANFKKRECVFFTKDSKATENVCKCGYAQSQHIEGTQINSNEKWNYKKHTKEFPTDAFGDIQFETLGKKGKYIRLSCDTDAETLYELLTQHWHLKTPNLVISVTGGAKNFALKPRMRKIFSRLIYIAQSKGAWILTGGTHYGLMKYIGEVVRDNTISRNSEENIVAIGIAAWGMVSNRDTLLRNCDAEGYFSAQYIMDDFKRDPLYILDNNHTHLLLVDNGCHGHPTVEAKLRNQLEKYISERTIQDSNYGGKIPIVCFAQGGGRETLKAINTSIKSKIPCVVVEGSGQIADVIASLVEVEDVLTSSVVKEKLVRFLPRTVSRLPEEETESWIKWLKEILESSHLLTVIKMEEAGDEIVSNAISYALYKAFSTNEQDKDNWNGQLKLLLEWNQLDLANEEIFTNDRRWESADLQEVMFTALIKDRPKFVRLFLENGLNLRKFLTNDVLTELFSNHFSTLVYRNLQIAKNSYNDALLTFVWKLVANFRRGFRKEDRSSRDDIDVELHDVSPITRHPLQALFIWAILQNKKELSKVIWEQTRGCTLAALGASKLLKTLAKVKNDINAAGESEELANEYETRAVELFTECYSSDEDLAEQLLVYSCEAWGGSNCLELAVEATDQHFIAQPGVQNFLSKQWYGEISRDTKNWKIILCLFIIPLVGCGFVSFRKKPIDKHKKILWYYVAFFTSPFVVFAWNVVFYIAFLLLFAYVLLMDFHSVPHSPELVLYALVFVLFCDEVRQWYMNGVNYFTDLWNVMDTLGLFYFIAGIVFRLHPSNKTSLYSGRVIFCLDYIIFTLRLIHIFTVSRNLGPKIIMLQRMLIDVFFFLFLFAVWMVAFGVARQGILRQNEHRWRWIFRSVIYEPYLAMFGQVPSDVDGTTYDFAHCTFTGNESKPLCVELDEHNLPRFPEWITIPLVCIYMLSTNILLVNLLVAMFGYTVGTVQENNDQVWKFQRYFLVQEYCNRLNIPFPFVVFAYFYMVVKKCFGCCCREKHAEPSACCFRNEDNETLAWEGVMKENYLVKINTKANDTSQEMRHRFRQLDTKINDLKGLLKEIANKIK

Compound	inhibition at 0.5 µM (canine TRPM8 HEK293, icilin) [%]	pIC50	inhibition at 0.2 µM (canine TRPM8 HEK293, icilin) [%]	further results
O=C(C(Nc1cccc(F)c1)c1ccc(C(F)(F)F)cc1)N1CCCC1c1ccccc1Cl (stereo not shown) [Cpd 78]	94	6.86	–	–
O=C(C(c1ccc(C(F)(F)F)cc1)N1CCCc2ccccc21)N1Cc2ccccc2C1 (stereo not shown) [Cpd 363]	–	6.87	72	–
O=C(C(Nc1ccccc1)c1ccc(C(F)(F)F)cc1)N1CCCC1c1ccccc1Cl (single isomer, unassigned) [Cpd 369]	–	–	–	% Inh @ 0.5 μM (canine TRPM8 HEK293, icilin): 7.773%; % Inh @ 3 μM (3 μM compound, canine TRPM8 HEK293, icilin): 48%
CC(C)(C)c1ccc(C(Nc2ccccc2)C(=O)N2CCCCC2c2ccccc2)cc1 (stereo not shown) [Cpd 11]	–	6.77	–	inhibition at 1 µM (canine TRPM8 HEK293, icilin): 103%
O=C(C(Nc1c(F)cccc1F)c1ccc(Cl)cc1)N1CCCC1c1cccnc1 (mixture of isomers) [Cpd 270]	–	–	–	% Inh @ 0.2 μM (canine TRPM8 HEK293, icilin): 58%
O=C(C(Nc1ccccc1F)c1ccc2c(c1)CCO2)N1CCCC1c1cccnc1 (racemic) [Cpd 282]	–	–	–	% Inh @ 0.2 μM (canine TRPM8 HEK293, icilin): 17%
CC(C)(C)c1ccc(C(Nc2ccccc2)C(=O)N2CCCCCC2c2ccccc2)cc1 (stereo not shown) [Cpd 18]	–	6.46	–	inhibition at 1 µM (canine TRPM8 HEK293, icilin): 95.4%
O=C([C@H](Nc1c(F)cccc1F)c1ccc(Br)cc1)N1[C@H](CO)CC[C@@H]1c1ccccc1 (single isomer, unassigned) [Cpd 243]	–	6.87	88	–
CC(C)(C)c1ccc(C(Nc2ccccc2)C(=O)N2CCCC2c2ccccc2Cl)cc1 (single isomer, unassigned) [Cpd 1]	–	6.50	–	inhibition at 1 µM (canine TRPM8 HEK293, icilin): 101%
O=C(C(Nc1ccccc1)c1cccnc1)N1Cc2ccccc2C1 (racemic) [Cpd 215]	–	–	–	% Inh @ 0.2 μM (canine TRPM8 HEK293, icilin): 18%
O=C(C(Nc1ccccc1)c1ccccn1)N1Cc2ccccc2C1 (racemic) [Cpd 216]	–	–	–	% Inh @ 0.2 μM (canine TRPM8 HEK293, icilin): 32%
CC(C)(C)c1ccc(C(Nc2ccccc2)C(=O)N2CCCC2CNc2ccccc2)cc1 (single isomer, unassigned) [Cpd 368]	–	–	–	% Inh @ 1 μM (1 μM compound, canine TRPM8 HEK293, icilin): 15.864%
O=C(C(c1ccc(C(F)(F)F)cc1)N1CCCc2ccccc21)N1CCCC1c1cccnc1 (mixture of isomers) [Cpd 336]	–	–	–	% Inh @ 0.2 μM (canine TRPM8 HEK293, icilin): 43%
CS(=O)(=O)c1ccc(C(Nc2ccccc2F)C(=O)N2CCCC2c2ccccc2F)cc1 (mixture of isomers) [Cpd 224]	–	–	–	% Inh @ 0.2 μM (canine TRPM8 HEK293, icilin): 55%
CC(=O)N(c1ccccc1F)[C@H](C(=O)N1CCC[C@H]1c1ccccc1F)c1ccc(C(F)(F)F)cc1 [Cpd 318, N-(2-Fluoro-phenyl)-N-[2-[(2S)-2-(2-fluoro-phenyl)-pyrrolidin-1-yl]-2-oxo-(1S)-1-(4-trifluoromethyl-phenyl)-ethyl]-acetamide]	–	–	47	–
COc1ccc(C(Nc2ccccc2)C(=O)N2Cc3ccccc3C2)cc1 (racemic) [Cpd 73]	–	–	–	% Inh @ 0.5 μM (canine TRPM8 HEK293, icilin): 33%
COc1ccc(NC(C(=O)N2CCCC2c2ccccc2OC)c2ccc(Cl)cc2)cc1 (stereo not shown) [Cpd 138]	95	6.92	–	–
COC(=O)C1CCC(c2ccccc2)N1C(=O)C(Nc1ccccc1)c1ccc(Cl)cc1 (stereo not shown) [Cpd 207]	–	–	–	% Inh @ 0.2 μM [1]: 47%
CC(Nc1ccccc1)(C(=O)N1CCCC1c1ccccc1Cl)c1ccc(C(F)(F)F)cc1 (stereo not shown) [Cpd 80, 1-[2-(2-Chloro-phenyl)-pyrrolidin-1-yl]-2-phenylamino-2-(4-trifluoromethyl-phenyl)-propan-1-one]	69	–	–	–
CC(C)(C)c1ccc(C(Nc2ccccc2)C(=O)N2CCC(O)(c3ccccc3)CC2)cc1 (stereo not shown) [Cpd 3]	–	6.45	–	inhibition at 1 µM (canine TRPM8 HEK293, icilin): 101%
O=C(C(Nc1ccccc1)c1ccc(C(F)(F)F)cc1)N1CCCC1c1ccccn1 (stereo not shown) [Cpd 50]	83.6	6.42	–	–
O=C(C(Nc1ccccc1F)c1ccc(Br)cc1)N1CCCC1c1ccccc1F (single isomer, unassigned) [Cpd 159]	94	6.96 and 7.42	97	–

Continued by rising pIC50, values first:

inhibition at 0.5 µM (canine TRPM8 HEK293, icilin) [%]	pIC50	inhibition at 0.2 µM (canine TRPM8 HEK293, icilin) [%]	Compound	further results
81	6.94	–	COc1ccc(NC(C(=O)N2CCCC2c2ccccc2)c2ccc(Cl)cc2)cc1 (stereo not shown) [Cpd 139]	–
101	6.98	–	O=C(C(Nc1ccccc1)c1ccc(C(F)(F)F)cc1)N1CCCC1c1ccccc1F (single isomer, unassigned) [Cpd 45]	–
81	7.00	–	COc1ccc(NC(C(=O)N2CCCC2c2ccccc2F)c2ccc(Cl)cc2)cc1 (stereo not shown) [Cpd 137]	–
100	7.05	–	O=C(C(Nc1ccccc1)c1cccc(C(F)(F)F)c1)N1CCCC1c1ccccc1Cl (stereo not shown) [Cpd 97]	–
–	7.11	97	O=C(O)c1cccc(C2CCCN2C(=O)C(Nc2ccccc2F)c2cc3ccccc3s2)c1 (stereo not shown) [Cpd 326, 3-{1-[2-Benzo[b]thiophen-2-yl-2-(2-fluoro-phenylamino)-acetyl]-pyrrolidin-2-yl}-benzoic acid]	–
96	7.21	–	O=C(C(Nc1ccc(F)cc1F)c1ccc(Cl)cc1)N1CCCC1c1ccccc1 (stereo not shown) [Cpd 125]	–
–	7.22	–	CC(C)(C)c1ccc(C(Nc2ccccc2)C(=O)N2CCCC2c2ccccc2)cc1 (stereo not shown) [Cpd 12]	inhibition at 1 µM (canine TRPM8 HEK293, icilin): 103%
101	7.24	–	O=C(C(Nc1ccccc1)c1ccc(C(F)(F)F)cc1)N1CCCCC1c1ccccc1 (stereo not shown) [Cpd 44]	–
100	7.25	–	COc1ccccc1C1CCCN1C(=O)C(Nc1ccccc1)c1cccc(C(F)(F)F)c1 (stereo not shown) [Cpd 98]	–
–	7.26	89	O=C(C(Cc1ccccc1F)c1ccc(C(F)(F)F)cc1)N1Cc2ccccc2C1 (stereo not shown) [Cpd 200]	–
98	7.30	–	COc1ccccc1C1CCCN1C(=O)C(Nc1cccc(F)c1)c1ccc(C(F)(F)F)cc1 (stereo not shown) [Cpd 79]	–
–	7.34	98	O=C(C(Nc1cc(F)ccc1F)c1ccc(Cl)cc1)N1Cc2ccccc2C1 (stereo not shown) [Cpd 174]	–
–	7.37	93	O=C(C(Nc1ccccc1)c1cnc2ccccc2c1)N1CCCC1c1ccccc1F (stereo not shown) [Cpd 264]	–
–	7.42	96	Cc1c(C(Cc2ccccc2F)C(=O)N2Cc3ccccc3C2)sc2ccccc12 (stereo not shown) [Cpd 179]	–
100	7.43	–	O=C(C(Nc1ccccc1F)c1ccc(C(F)(F)F)cc1)N1CCCC1c1ccc(F)cc1 (stereo not shown) [Cpd 135]	–
–	7.55	101	COC(=O)c1cccc(C2CCCN2C(=O)C(Nc2ccccc2F)c2cc3ccccc3s2)c1 (stereo not shown) [Cpd 324, 3-{1-[2-Benzo[b]thiophen-2-yl-2-(2-fluoro-phenylamino)-acetyl]-pyrrolidin-2-yl}-benzoic acid methyl ester]	–
–	7.60	100	O=C(C(Nc1ccccc1F)c1ccc(C(F)(F)F)cc1)N1CCCC1c1ccccn1 (stereo not shown) [Cpd 202]	–
98	7.70	–	O=C(C(Nc1ccc(F)cc1)c1ccc(C(F)(F)F)cc1)N1CCCC1c1ccccc1 (single isomer, unassigned) [Cpd 75]	–
–	7.74	98	O=C(C(Nc1ccccc1F)c1ccc(C(F)(F)F)cc1)N1CCC[C@H]1c1cccc(F)c1 (mixture of isomers) [Cpd 186]	–
–	7.89	–	O=C(C(Nc1ccccc1F)c1cc2ccccc2s1)N1CCCC1c1ccccn1 (single isomer, unassigned) [Cpd 331]	% Inh @ 0.2 μM (canine TRPM8 HEK293, icilin): 101%
97	8.00	–	O=C(C(Nc1ccccc1F)c1ccc(Cl)cc1)N1CCCC1c1ccccc1F (stereo not shown) [Cpd 115]	–
–	8.10	94	O=C(C(Nc1ccccc1F)c1cc2ccccc2s1)N1CCCC1c1ccccn1 (stereo not shown) [Cpd 321]	–
–	8.10	89	O=C(C(Nc1ccccc1F)c1cc2ccccc2s1)N1CCCC1c1ccncc1 (single isomer, unassigned) [Cpd 322]	–
–	8.15	101	O=C(C(Nc1ccccc1F)c1ccc(-c2ccccc2)nc1)N1CCC[C@H]1c1ccccc1F (mixture of isomers) [Cpd 306]	% Inh @ 0.2 μM [1]: 102%
97	8.15	–	COc1ccccc1C1CCCN1C(=O)C(Nc1ccccc1F)c1ccc(Br)cc1 (racemic) [Cpd 90]	–
–	8.16	–	O=C(C(Nc1ccccc1F)c1ccc(C(F)(F)F)cc1)N1CCCC1c1ccccc1F (mixture of isomers) [Cpd 131]	% Inh @ 0.5 μM (canine TRPM8 HEK293, icilin, 0.5 µM): 103%
97	8.22	–	COc1ccccc1C1CCCN1C(=O)C(Nc1ccccc1)c1ccc(Cl)cc1 (stereo not shown) [Cpd 85]	–
–	8.52	102	CC(=O)Nc1ccc(C2CCCN2C(=O)C(Nc2ccccc2F)c2ccc(C(F)(F)F)cc2)cc1 (stereo not shown) [Cpd 317]	–
